Positions of bridges follow the written chain, without caps; N, C: chain ends. Residues, ends and D or L forms follow the SMILES beside them.
How the values were obtained:
[1] = test system: patients meeting modified Rome II criteria for constipation-predominant irritable bowel syndrome; assay: Trial 1 (LIN-MD-31): randomized, double-blind, placebo-controlled trial with 12-week treatment period and randomized withdrawal period; type: in vivo, human
Protocol: (§1) Linaclotide capsules from Example 4 were administered in two multicenter, randomized, double-blind, placebo-controlled parallel-group trials.
Trial 1 (LIN-MD-31) was conducted on approximately 800 patients meeting modified Rome II criteria for constipation-predominant irritable bowel syndrome. The trial included a two-week pretreatment baseline period, a 12-week treatment period, and a randomized withdrawal period (see FIG. 1A).
(§2) The Pretreatment Period is defined as the 14 to 21 calendar days immediately before starting the trial during which patients provided information related to their daily bowel habits, daily assessment of the symptom severity (such as, e.g., abdominal pain), constipation severity, and use of other medicines, laxatives, suppositories, and/or enemas. Patients who satisfied the necessary criteria were entered into the Treatment Period.
(§3) In both trials, the Treatment Period began with randomization. In Trial 1, treatment lasted for 12 weeks. In Trial 2, treatment lasted for 26 weeks. Patients were randomized to approximately equal-sized treatment groups consisting of 266 μg linaclotide or a placebo, taken once daily in the morning 30 minutes before breakfast. Patients continued to provide daily assessments such as their daily bowel habit assessments and daily patient symptom severity assessments.
(§4) In both trials, daily assessment data for patients in both treatment groups were compiled to give the following primary, co-primary and secondary treatment efficacy endpoints, which have been defined by United States and European regulatory agencies for the study of the efficacy of IBS-C.
(§5) A patient was classified as a 9/12 Week APC 3+1 Responder if they were a weekly APC 3+1 Responder for ≥9 out of the 12 (i.e., 9/12) weeks of the study.
(§6) A patient was classified as a 9/12 Week CSBM 3+1 Responder if they were a weekly CSBM 3+1 Responder for ≥9/12 weeks.
(§7) A patient was classified as a 9/12 Week Abdominal Pain Responder if they were a weekly Abdominal Pain Responder for ≥9/12 weeks.
(§8) A patient was classified as a 6/12 Week APC+1 Responder if they were a weekly APC+1 Responder for ≥6 out of the 12 (i.e., 6/12) weeks of the study.
(§9) Also compiled from the patient daily data were the following secondary efficacy endpoints: • Change From Baseline (i.e., change from pre-treatment period) in CSBM Frequency Rate (measured as a weekly rate); • Change From Baseline (“CFB”) in SBM Frequency Rate (weekly rate); • Change From Baseline in Stool Consistency (measured on a 7-point BSFS); • Change From Baseline in Severity of Straining (measured on a 5-point scale); • Change From Baseline in Abdominal Pain (measured on a 11-point numerical rating scale and scored 0-10); • Change From Baseline in Abdominal Discomfort (measured on […] numerical rating scale and scored 0-10); • Change From Baseline in Bloating (measured on a 11-point numerical rating scale and scored 0-10); • 6/12 Week CSBM+1 Responder; • 6/12 Week Abdominal Pain Responder; and • Change From Baseline in Percent of Abdominal Pain-free Days (Pain-free is a score of 0 on the 0-10 point scale).
Patients who were randomized to linaclotide in the Treatment Period and completed the 12 weeks of the Treatment Period, the RW Population, were randomized to treatment with linaclotide or placebo in the RW Period as follows: half of the RW Population received placebo for the first half of the RW Period followed by administration of 266 μg linaclotide; one quarter of the RW Population received 266 μg linaclotide for the entire RW Period and the remaining one quarter of the RW Population received 266 μg linaclotide for the first half of the RW Period and placebo for the remainder of the RW Period. Patients that were randomized to placebo in the Treatment Period and completed the 12 weeks of the Treatment Period received 266 μg linaclotide in the RW Period.

[2] = test system: patients meeting modified Rome II criteria for constipation-predominant irritable bowel syndrome; assay: Trial 2 (MCP-103-302): randomized, double-blind, placebo-controlled trial with 26-week treatment period; type: in vivo, human
Protocol: as §1
Trial 2 (MCP-103-302) was conducted on approximately 805 patients meeting modified Rome II criteria for constipation-predominant irritable bowel syndrome (<3 CSBM/wk, ≤5 SBM/wk, abdominal pain≥3 on a 0-10 scale.) As in Trial 1, the trial included a two-week pretreatment baseline period; however, the treatment period was continued for 26 weeks rather than 12 weeks as in Trial 1, and no randomized withdrawal period was performed (see FIG. 1B).
as §2, §3, §4, §5, §6, §7, §8
In Trial 2, the above co-primary efficacy parameters, 12-week Abdominal Pain/Abdominal Discomfort Responder and 12-week IBS Degree of Relief Responder, were also computed for the full 26 week treatment period.
as §9

[3] = Systemic levels of linaclotide after oral administration; type: in vivo; conditions: after oral administration at therapeutic dose levels
[4] = test system: chronic constipation (CC); conditions: Phase 2b studies for CC; four-week treatment period; cited from earlier work
[5] = 266 μg linaclotide group, once daily, 12 weeks
[6] = 266 μg linaclotide group, once daily
[7] = 266 μg linaclotide group, once daily, first 12 weeks
[8] = 26-week treatment period, linaclotide-treated patients
[9] = after 12 weeks, linaclotide-treated patients
[10] = main secondary efficacy endpoint, full 26 week treatment period
[11] = throughout the 26-week treatment period, linaclotide-treated patients

Structure (SMILES): C[C@@H]1NC(=O)[C@@H]2CCCN2C(=O)[C@H](CC(N)=O)NC(=O)[C@@H]2CSSC[C@H](N)C(=O)N[C@H]3CSSC[C@H](NC1=O)C(=O)N[C@@H]([C@@H](C)O)C(=O)NCC(=O)N[C@H](C(=O)N[C@@H](Cc1ccc(O)cc1)C(=O)O)CSSC[C@H](NC(=O)[C@H](Cc1ccc(O)cc1)NC(=O)[C@H](CCC(=O)O)NC3=O)C(=O)N2 [linaclotide, Cys1 Cys2 Glu3 Tyr4 Cys5 Cys6 Asn7 Pro8 Ala9 Cys10 Thr11 Gly12 Cys13 Tyr14] (H-CCEYCCNPACTGCY-OH; disulfide 1-6, 2-10, 5-13)
- 6/12-week APC+1 pain responder rate [1, 5]: 33.6%
- 6/12-week abdominal pain responder rate [1, 5]: 50.1%
- 6/12 week CSBM+1 responder rate [1, 5]: 48.6%
- 9/12-week APC 3+1 responder rate [1, 5]: 12.1%
- 9/12-week CSBM 3+1 responder rate [1, 5]: 19.5%
- 9/12-week abdominal pain responder rate [1, 5]: 34.3%
- 12-week Abdominal Pain/Abdominal Discomfort Responder [1, 5]: 54.8%
- 12-week IBS Degree of Relief Responder [1, 5]: 37.0%
- rebound of IBS-C symptoms following discontinuation of linaclotide treatment ([1]; Randomized Withdrawal Period): no evidence of rebound of IBS-C symptoms
- 12-week Abdominal Pain/Abdominal Discomfort Responder: Statistical Significance (266 μg vs. Placebo) ([1]; co-primary efficacy parameter): Yes
- 12-week IBS Degree of Relief Responder: Statistical Significance (266 μg vs. Placebo) ([1]; co-primary efficacy parameter): Yes
- adverse event: diarrhea with mild symptoms ([1]; linaclotide group): 9%
- adverse event: diarrhea with moderate symptoms ([1]; linaclotide group): 8%
- adverse event: diarrhea with severe symptoms ([1]; linaclotide group): 2%
- overall rate of discontinuation due to adverse events ([1]; linaclotide group): 8%
- patients reporting at least a 10% improvement in abdominal symptoms over 12 weeks ([1]; linaclotide treatment, FIG. 10): under 80%
- adverse event: abdominal pain ([1]; linaclotide-treated patients): 5%
- adverse event: diarrhea ([1]; linaclotide-treated patients): 19%
- adverse event: flatulence ([1]; linaclotide-treated patients): 5%
- adverse event: headache ([1]; linaclotide-treated patients): 5%
- more CSBMs per week than with the placebo alone ([1]; on average, 12 weeks, FIG. 12C): about 1.5 CSBMs per week
- time until abdominal pain was reduced over the pre-treatment baseline ([1]; on average, sustained throughout the treatment period): 1 to 3 days
- 6/12 Week APC + 1 Responder: Statistical Significance (266 μg vs. Placebo) ([1]; primary efficacy endpoint): Yes
- 9/12 Week APC 3 + 1 Responder: Statistical Significance (266 μg vs. Placebo) ([1]; primary efficacy endpoint): Yes
- 9/12 Week Abdominal Pain Responder: Statistical Significance (266 μg vs. Placebo) ([1]; primary efficacy endpoint): Yes
- 9/12 Week CSBM 3 + 1 Responder: Statistical Significance (266 μg vs. Placebo) ([1]; primary efficacy endpoint): Yes
- 6/12 Week Abdominal Pain Responder: Statistical Significance (266 μg vs. Placebo) ([1]; secondary efficacy endpoint): Yes
- 6/12 Week CSBM + 1 Responder: Statistical Significance (266 μg vs. Placebo) ([1]; secondary efficacy endpoint): Yes
- 12-Week Abdominal Discomfort (CFB): Statistical Significance (266 μg vs. Placebo) ([1]; secondary efficacy endpoint): Yes
- 12-Week Abdominal Pain (CFB): Statistical Significance (266 μg vs. Placebo) ([1]; secondary efficacy endpoint): Yes
- 12-Week Bloating (CFB): Statistical Significance (266 μg vs. Placebo) ([1]; secondary efficacy endpoint): Yes
- 12-Week CSBM Frequency Rate(CFB): Statistical Significance (266 μg vs. Placebo) ([1]; secondary efficacy endpoint): Yes
- 12-Week Percent of Abdominal Pain-free Days (CFB): Statistical Significance (266 μg vs. Placebo) ([1]; secondary efficacy endpoint): Yes
- 12-Week SBM Frequency Rate (CFB): Statistical Significance (266 μg vs. Placebo) ([1]; secondary efficacy endpoint): Yes
- 12-Week Severity of Straining (CFB): Statistical Significance (266 μg vs. Placebo) ([1]; secondary efficacy endpoint): Yes
- 12-Week Stool Consistency (CFB): Statistical Significance (266 μg vs. Placebo) ([1]; secondary efficacy endpoint): Yes
- 12-week Abdominal Pain/Abdominal Discomfort Responder [2, 6]: 54.1%
- 12-week IBS Degree of Relief Responder [2, 6]: 39.4%
- 6/12-week APC+1 pain responder rate [2, 7]: 33.7%
- 9/12-week APC 3+1 responder rate [2, 7]: 12.7%
- 9/12-week CSBM 3+1 responder rate [2, 7]: 18.0%
- 9/12-week abdominal pain responder rate [2, 7]: 38.9%
- overall rate of discontinuation due to adverse events [2, 8]: 10.2%
- patients discontinued due to diarrhea [2, 8]: 4.5%
- overall rate of discontinuation due to adverse events ([2]; after 12 weeks, linaclotide group): 9%
- adverse event: abdominal pain [2, 9]: 4%
- adverse event: diarrhea [2, 9]: 18%
- adverse event: flatulence [2, 9]: 3%
- adverse event: headache [2, 9]: 3%
- 12-week Abdominal Pain/Abdominal Discomfort Responder: Statistical Significance (266 μg vs. Placebo) ([2]; co-primary efficacy parameter): Yes
- 12-week IBS Degree of Relief Responder: Statistical Significance (266 μg vs. Placebo) ([2]; co-primary efficacy parameter): Yes
- 26-week Abdominal Pain/Abdominal Discomfort Responder: Statistical Significance (266 μg vs. Placebo) [2, 10]: Yes
- 26-week IBS Degree of Relief Responder: Statistical Significance (266 μg vs. Placebo) [2, 10]: Yes
- CSBMs per week compared with placebo ([2]; on average, 12 weeks after treatment, FIG. 12C): more CSBMs per week than with the placebo alone
- time until abdominal pain was reduced over the pre-treatment baseline ([2]; on average, sustained throughout the 26 week treatment period): 1 to 3 days
- 6/12 Week APC + 1 Responder: Statistical Significance (266 μg vs. Placebo) ([2]; primary efficacy endpoint): Yes
- 9/12 Week APC 3 + 1 Responder: Statistical Significance (266 μg vs. Placebo) ([2]; primary efficacy endpoint): Yes
- 9/12 Week Abdominal Pain Responder: Statistical Significance (266 μg vs. Placebo) ([2]; primary efficacy endpoint): Yes
- 9/12 Week CSBM 3 + 1 Responder: Statistical Significance (266 μg vs. Placebo) ([2]; primary efficacy endpoint): Yes
- 6/12 Week Abdominal Pain Responder: Statistical Significance (266 μg vs. Placebo) ([2]; secondary efficacy endpoint): Yes
- 6/12 Week CSBM + 1 Responder: Statistical Significance (266 μg vs. Placebo) ([2]; secondary efficacy endpoint): Yes
- 12-Week Abdominal Discomfort (CFB): Statistical Significance (266 μg vs. Placebo) ([2]; secondary efficacy endpoint): Yes
- 12-Week Abdominal Pain (CFB): Statistical Significance (266 μg vs. Placebo) ([2]; secondary efficacy endpoint): Yes
- 12-Week Bloating (CFB): Statistical Significance (266 μg vs. Placebo) ([2]; secondary efficacy endpoint): Yes
- 12-Week CSBM Frequency Rate(CFB): Statistical Significance (266 μg vs. Placebo) ([2]; secondary efficacy endpoint): Yes
- 12-Week Percent of Abdominal Pain-free Days (CFB): Statistical Significance (266 μg vs. Placebo) ([2]; secondary efficacy endpoint): Yes
- 12-Week SBM Frequency Rate (CFB): Statistical Significance (266 μg vs. Placebo) ([2]; secondary efficacy endpoint): Yes
- 12-Week Severity of Straining (CFB): Statistical Significance (266 μg vs. Placebo) ([2]; secondary efficacy endpoint): Yes
- 12-Week Stool Consistency (CFB): Statistical Significance (266 μg vs. Placebo) ([2]; secondary efficacy endpoint): Yes
- adverse event: abdominal pain [2, 11]: 4.5%
- adverse event: diarrhea [2, 11]: 19.7%
- adverse event: flatulence [2, 11]: 3.7%
- adverse event: headache [2, 11]: 3.2%
- adverse event: viral gastroenteritis [2, 11]: 3.7%
- levels of linaclotide seen systemically [3]: no detectable levels
- effect on constipation, abdominal discomfort and bloating [4]: reduced constipation, abdominal discomfort, and bloating

— patent US20240115656A1, “Treatment of Constipation-Predominant Irritable Bowel Syndrome” (Ironwood Pharmaceuticals, Inc., priority 2010, published 2024)
